Reference: US6737383B1, “Herbicidal oxadiazolidines” (priority 1999, dated 2004)

How the values were obtained:
purple nutsedge = assay: Test B pre/postemergence purple nutsedge; assay type: in vivo, Cyperus rotundus
Procedure, shortened: (§1)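 Response is a visual 0-to-10 score relative to untreated plants, where 0 means no effect and 10 means complete control, taken twelve to sixteen days after application. Treatments went onto soil at planting and onto foliage of 1- to 4-leaf plants, using a surfactant-containing non-phytotoxic solvent.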

crabgrass = assay: Test B pre/postemergence crabgrass; assay type: in vivo, Digitaria sanguinalis
Procedure, shortened: as §1

pigweed = assay: Test B pre/postemergence pigweed; assay type: in vivo, Amaranthus retroflexus
Procedure, shortened: as §1

sugar beet = assay: Test B pre/postemergence sugar beet; assay type: in vivo, Beta vulgaris
Procedure, shortened: as §1

smallflower flatsedge = assay: Test B flood test smallflower flatsedge; assay type: in vivo, Cyperus difformis
Procedure, shortened: (§2)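 Flood test on plants grown to the 2-leaf stage; treated plants kept in greenhouse twelve to sixteen days, then visually rated against controls on a 0 (no effect) to 10 (complete control) scale.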

rape = assay: Test B pre/postemergence rape; assay type: in vivo, Brassica napus
Procedure, shortened: as §1

surinam grass = assay: Test B pre/postemergence surinam grass; assay type: in vivo, Brachiaria decumbens
Procedure, shortened: as §1

velvetleaf = assay: Test B pre/postemergence velvetleaf; assay type: in vivo, Abutilon theophrasti
Procedure, shortened: as §1

bedstraw = assay: Test B pre/postemergence bedstraw; assay type: in vivo, Galium aparine
Procedure, shortened: as §1

duck salad = assay: Test B flood test duck salad; assay type: in vivo, Heteranthera limosa
Procedure, shortened: as §2

soybean = assay: Test B pre/postemergence soybean; assay type: in vivo, Glycine max
Procedure, shortened: as §1

corn = assay: Test B pre/postemergence corn; assay type: in vivo, Zea mays
Procedure, shortened: as §1

rice = assay: Test B flood test rice; assay type: in vivo, Oryza sativa
Procedure, shortened: as §2

wheat = assay: Test B pre/postemergence wheat; assay type: in vivo, Triticum aestivum
Procedure, shortened: as §1

blackgrass = assay: Test B pre/postemergence blackgrass; assay type: in vivo, Alopecurus myosuroides
Procedure, shortened: as §1

wild oat = assay: Test B pre/postemergence wild oat; assay type: in vivo, Avena fatua
Procedure, shortened: as §1

[1] = Preemergence, Rate 31 g/ha, visual rating, scale 0 to 10 (0 no effect, 10 complete control)
[2] = Preemergence, Rate 62 g/ha, scale of 0 to 10 where 0 is no effect and 10 is complete control
[3] = Preemergence, Rate 250 g/ha, scale of 0 to 10 where 0 is no effect and 10 is complete control
[4] = Rate 31 g/ha, Postemergence, scale 0 to 10
[5] = Rate 62 g/ha, Postemergence, scale 0 to 10 (0 no effect, 10 complete control)
[6] = Rate 125 g/ha, Postemergence, scale of 0 to 10 where 0 is no effect and 10 is complete control
[7] = Rate 125 g/ha, Preemergence, scale of 0 to 10 where 0 is no effect and 10 is complete control
[8] = Rate 250 g/ha, Postemergence, scale of 0 to 10 where 0 is no effect and 10 is complete control
[9] = Rate 31 g/ha, Pre-emergence section (flood test species), scale 0 to 10
[10] = Rate 62 g/ha, headed Pre-emergence (flood test species), scale 0 to 10 (0 no effect, 10 complete control)
[11] = Rate 125 g/ha, Pre-emergence, flood test species, scale 0 to 10 where 0 is no effect and 10 is complete control
[12] = Rate 250 g/ha, Pre-emergence, flood-test species, scale 0 to 10, 0 is no effect, 10 is complete control

**Q.** How did the “Nutsedge plant response rating” value (purple nutsedge; [1]) turn out when `CC(C)=CCn1c(=O)on(C(=O)N(c2ccc(F)cc2)C(C)C)c1=O` [Compound 288] was run?
**A.** 0

**Q.** What about the “Nutsedge plant response rating” value (purple nutsedge; [2]) of the same compound?
**A.** 0

**Q.** And the “Nutsedge plant response rating” value (purple nutsedge; [3])?
**A.** 0

**Q.** And the “Nutsedge plant response rating” value (purple nutsedge; [4])?
**A.** 0

**Q.** What about the “Nutsedge plant response rating” value (purple nutsedge; [5]) of the same compound?
**A.** 0

**Q.** What about the “Nutsedge plant response rating” value (purple nutsedge; [6]) of the same compound?
**A.** 0

**Q.** What about the “Nutsedge plant response rating” value (purple nutsedge; [7]) of the same compound?
**A.** 0

**Q.** And the “Plant response rating, Nutsedge” value (purple nutsedge; [8])?
**A.** 0

**Q.** And the “Crabgrass plant response rating” value (crabgrass; [1])?
**A.** 0

**Q.** What about the “Crabgrass plant response rating” value (crabgrass; [2]) of the same compound?
**A.** 1

**Q.** What about the “Crabgrass plant response rating” value (crabgrass; [3]) of the same compound?
**A.** 10

**Q.** What about the “Crabgrass plant response rating” value (crabgrass; [4]) of the same compound?
**A.** 0

**Q.** And the “Crabgrass plant response rating” value (crabgrass; [5])?
**A.** 0

**Q.** And the “Crabgrass plant response rating” value (crabgrass; [6])?
**A.** 0

**Q.** And the “Crabgrass plant response rating” value (crabgrass; [7])?
**A.** 2

**Q.** What about the “Plant response rating, Crabgrass” value (crabgrass; [8]) of the same compound?
**A.** 3

**Q.** And the “Redroot pigweed plant response rating” value (pigweed; [1])?
**A.** 0

**Q.** What about the “Redroot pigweed plant response rating” value (pigweed; [2]) of the same compound?
**A.** 0

**Q.** And the “Redroot pigweed plant response rating” value (pigweed; [3])?
**A.** 0

**Q.** What about the “Redroot pigweed plant response rating” value (pigweed; [4]) of the same compound?
**A.** 0

**Q.** What about the “Redroot pigweed plant response rating” value (pigweed; [5]) of the same compound?
**A.** 0

**Q.** And the “Redroot pigweed plant response rating” value (pigweed; [6])?
**A.** 0

**Q.** What about the “Redroot pigweed plant response rating” value (pigweed; [7]) of the same compound?
**A.** 0

**Q.** What about the “Plant response rating, Redroot pigweed” value (pigweed; [8]) of the same compound?
**A.** 0

**Q.** What about the “Sugarbeets plant response rating” value (sugar beet; [1]) of the same compound?
**A.** 0

**Q.** And the “Sugarbeets plant response rating” value (sugar beet; [2])?
**A.** 0

**Q.** What about the “Sugarbeets plant response rating” value (sugar beet; [3]) of the same compound?
**A.** 0

**Q.** What about the “Sugarbeets plant response rating” value (sugar beet; [5]) of the same compound?
**A.** 0

**Q.** What about the “Sugarbeets plant response rating” value (sugar beet; [6]) of the same compound?
**A.** 0

**Q.** What about the “Sugarbeets plant response rating” value (sugar beet; [7]) of the same compound?
**A.** 0

**Q.** What about the “Plant response rating, Sugarbeets” value (sugar beet; [8]) of the same compound?
**A.** 0

**Q.** What about the “S. Flatsedge plant response rating” value (smallflower flatsedge; [9]) of the same compound?
**A.** 0

**Q.** And the “S. Flatsedge plant response rating” value (smallflower flatsedge; [10])?
**A.** 0

**Q.** What about the “S. Flatsedge plant response rating” value (smallflower flatsedge; [11]) of the same compound?
**A.** 0

**Q.** And the “S. Flatsedge plant response rating” value (smallflower flatsedge; [12])?
**A.** 0

**Q.** What about the “Rape plant response rating” value (rape; [1]) of the same compound?
**A.** 0

**Q.** And the “Rape plant response rating” value (rape; [2])?
**A.** 0

**Q.** And the “Rape plant response rating” value (rape; [3])?
**A.** 0

**Q.** And the “Rape plant response rating” value (rape; [4])?
**A.** 0

**Q.** What about the “Rape plant response rating” value (rape; [5]) of the same compound?
**A.** 1

**Q.** And the “Rape plant response rating” value (rape; [6])?
**A.** 2

**Q.** And the “Rape plant response rating” value (rape; [7])?
**A.** 0

**Q.** And the “Plant response rating, Rape” value (rape; [8])?
**A.** 3

**Q.** And the “B. signalgrass plant response rating” value (surinam grass; [1])?
**A.** 0

**Q.** What about the “B. signalgrass plant response rating” value (surinam grass; [2]) of the same compound?
**A.** 0

**Q.** And the “B. signalgrass plant response rating” value (surinam grass; [3])?
**A.** 6

**Q.** And the “B. signalgrass plant response rating” value (surinam grass; [4])?
**A.** 0

**Q.** What about the “B. signalgrass plant response rating” value (surinam grass; [5]) of the same compound?
**A.** 0

**Q.** And the “B. signalgrass plant response rating” value (surinam grass; [6])?
**A.** 0

**Q.** And the “B. signalgrass plant response rating” value (surinam grass; [7])?
**A.** 4

**Q.** And the “Plant response rating, B. signalgrass” value (surinam grass; [8])?
**A.** 0

**Q.** And the “Velvetleaf plant response rating” value (velvetleaf; [1])?
**A.** 0

**Q.** What about the “Velvetleaf plant response rating” value (velvetleaf; [2]) of the same compound?
**A.** 0

**Q.** And the “Velvetleaf plant response rating” value (velvetleaf; [3])?
**A.** 3

**Q.** What about the “Velvetleaf plant response rating” value (velvetleaf; [5]) of the same compound?
**A.** 0

**Q.** What about the “Velvetleaf plant response rating” value (velvetleaf; [6]) of the same compound?
**A.** 0

**Q.** What about the “Velvetleaf plant response rating” value (velvetleaf; [7]) of the same compound?
**A.** 0

**Q.** What about the “Plant response rating, Velvetleaf” value (velvetleaf; [8]) of the same compound?
**A.** 1

**Q.** And the “Bedstraw plant response rating” value (bedstraw; [1])?
**A.** 0

**Q.** What about the “Bedstraw plant response rating” value (bedstraw; [2]) of the same compound?
**A.** 0

**Q.** And the “Bedstraw plant response rating” value (bedstraw; [3])?
**A.** 10

**Q.** And the “Bedstraw plant response rating” value (bedstraw; [4])?
**A.** 0

**Q.** What about the “Bedstraw plant response rating” value (bedstraw; [5]) of the same compound?
**A.** 0

**Q.** And the “Bedstraw plant response rating” value (bedstraw; [6])?
**A.** 0

**Q.** What about the “Bedstraw plant response rating” value (bedstraw; [7]) of the same compound?
**A.** 2

**Q.** What about the “Plant response rating, Bedstraw” value (bedstraw; [8]) of the same compound?
**A.** 0

**Q.** And the “Ducksalad plant response rating” value (duck salad; [9])?
**A.** 0

**Q.** And the “Ducksalad plant response rating” value (duck salad; [10])?
**A.** 0

**Q.** And the “Ducksalad plant response rating” value (duck salad; [11])?
**A.** 0

**Q.** And the “Ducksalad plant response rating” value (duck salad; [12])?
**A.** 0

**Q.** And the “Soybean plant response rating” value (soybean; [1])?
**A.** 0

**Q.** And the “Soybean plant response rating” value (soybean; [2])?
**A.** 0

**Q.** And the “Soybean plant response rating” value (soybean; [3])?
**A.** 0

**Q.** And the “Soybean plant response rating” value (soybean; [5])?
**A.** 0

**Q.** And the “Soybean plant response rating” value (soybean; [6])?
**A.** 2

**Q.** And the “Soybean plant response rating” value (soybean; [7])?
**A.** 0

**Q.** What about the “Plant response rating, Soybean” value (soybean; [8]) of the same compound?
**A.** 2

**Q.** And the “Corn plant response rating” value (corn; [1])?
**A.** 0

**Q.** And the “Corn plant response rating” value (corn; [2])?
**A.** 0

**Q.** What about the “Corn plant response rating” value (corn; [3]) of the same compound?
**A.** 0

**Q.** What about the “Corn plant response rating” value (corn; [4]) of the same compound?
**A.** 0

**Q.** What about the “Corn plant response rating” value (corn; [5]) of the same compound?
**A.** 0

**Q.** What about the “Corn plant response rating” value (corn; [6]) of the same compound?
**A.** 0

**Q.** And the “Corn plant response rating” value (corn; [7])?
**A.** 0

**Q.** What about the “Plant response rating, Corn” value (corn; [8]) of the same compound?
**A.** 0

**Q.** What about the “Rice plant response rating” value (rice; [9]) of the same compound?
**A.** 0

**Q.** What about the “Rice plant response rating” value (rice; [10]) of the same compound?
**A.** 0

**Q.** What about the “Rice plant response rating” value (rice; [11]) of the same compound?
**A.** 0

**Q.** And the “Rice plant response rating” value (rice; [12])?
**A.** 0

**Q.** What about the “Wheat plant response rating” value (wheat; [1]) of the same compound?
**A.** 0

**Q.** And the “Wheat plant response rating” value (wheat; [2])?
**A.** 0

**Q.** What about the “Wheat plant response rating” value (wheat; [3]) of the same compound?
**A.** 2

**Q.** And the “Wheat plant response rating” value (wheat; [5])?
**A.** 0

**Q.** What about the “Wheat plant response rating” value (wheat; [6]) of the same compound?
**A.** 0

**Q.** And the “Wheat plant response rating” value (wheat; [7])?
**A.** 0

**Q.** What about the “Plant response rating, Wheat” value (wheat; [8]) of the same compound?
**A.** 0

**Q.** What about the “Blackgrass plant response rating” value (blackgrass; [1]) of the same compound?
**A.** 0

**Q.** What about the “Blackgrass plant response rating” value (blackgrass; [2]) of the same compound?
**A.** 0

**Q.** What about the “Blackgrass plant response rating” value (blackgrass; [3]) of the same compound?
**A.** 6

**Q.** And the “Blackgrass plant response rating” value (blackgrass; [4])?
**A.** 0

**Q.** And the “Blackgrass plant response rating” value (blackgrass; [5])?
**A.** 0

**Q.** And the “Blackgrass plant response rating” value (blackgrass; [6])?
**A.** 0

**Q.** What about the “Blackgrass plant response rating” value (blackgrass; [7]) of the same compound?
**A.** 2

**Q.** What about the “Plant response rating, Blackgrass” value (blackgrass; [8]) of the same compound?
**A.** 2

**Q.** And the “Wild oats plant response rating” value (wild oat; [1])?
**A.** 0

**Q.** What about the “Wild oats plant response rating” value (wild oat; [2]) of the same compound?
**A.** 0

**Q.** What about the “Wild oats plant response rating” value (wild oat; [3]) of the same compound?
**A.** 5

**Q.** And the “Wild oats plant response rating” value (wild oat; [5])?
**A.** 0

**Q.** And the “Wild oats plant response rating” value (wild oat; [6])?
**A.** 0

**Q.** And the “Plant response rating, Wild oats” value (wild oat; [8])?
**A.** 0
